Experimental data published in ChEMBL document CHEMBL3351789, “Triazolopyridines as selective JAK1 inhibitors: from hit identification to GLPG0634” (J Med Chem, 2014).
Active and inactive are the calls of the source. No cut-off for these calls is given here.

Experiments:
[1] = Half life in dog hepatocytes; assay type: ADME, cell-based, Canis lupus familiaris, Hepatocyte
[2] = Volume of distribution at steady state in dog at 1 mg/kg, iv; assay type: ADME, organism-based, Canis lupus familiaris; set-up: dose 1 mg/kg, route intravenous; conditions: in vivo, read-out: Vdss
[3] = AUC (0 to infinity) in rat at 5 mg/kg, po; assay type: ADME, organism-based; set-up: time infinity, dose 5 mg/kg, route oral; conditions: plasma
[4] = Cmax in dog at 5 mg/kg, po; assay type: ADME, organism-based, Canis lupus familiaris; set-up: dose 5 mg/kg, route oral; conditions: in vivo
[5] = Plasma protein binding in rat
[6] = Half life in dog at 1 mg/kg, iv; assay type: ADME, organism-based, Canis lupus familiaris; set-up: dose 1 mg/kg, route intravenous; conditions: in vivo
[7] = AUC (0 to infinity) in dog at 1 mg/kg, iv; assay type: ADME, organism-based, Canis lupus familiaris; set-up: time infinity, dose 1 mg/kg, route intravenous; conditions: plasma
Rattus norvegicus [8] = assay: Antiinflammatory activity in po dosed rat collagen-induced arthritis model assessed as reduction in clinical score measured up to day 15; assay type: functional, organism-based
[9] = Tmax in dog at 5 mg/kg, po; assay type: ADME, organism-based, Canis lupus familiaris; set-up: dose 5 mg/kg, route oral; conditions: in vivo
[10] = Cmax in rat at 5 mg/kg, po; assay type: ADME, organism-based; set-up: dose 5 mg/kg, route oral; conditions: in vivo
[11] = AUC (0 to infinity) in rat at 1 mg/kg, iv; assay type: ADME, organism-based; set-up: time infinity, dose 1 mg/kg, route intravenous; conditions: plasma
Jak1 protein = Jak1 protein (Rattus norvegicus, UniProt Q5FVF5); assay: Inhibition of rat JAK1
[12] = Oral bioavailability in dog at 1 mg/kg, iv and 5 mg/kg; assay type: ADME, organism-based, Canis lupus familiaris; conditions: in vivo
Cytochrome P450 2C9 = Cytochrome P450 2C9 (Homo sapiens, UniProt P11712); assay: Inhibition of CYP2C9 (unknown origin); assay type: ADME
[13] = Half life in dog at 5 mg/kg, po; assay type: ADME, organism-based, Canis lupus familiaris; set-up: dose 5 mg/kg, route oral; conditions: in vivo
[14] = Half life in rat hepatocytes; assay type: ADME, cell-based, Hepatocyte
[15] = Thermodynamic solubility in aqueous buffer solution at pH 3; assay type: physicochemical
Rattus norvegicus [16] = assay: Antiinflammatory activity in rat collagen-induced arthritis model assessed as reduction in clinical score at 0.3 mg/kg, po measured up to day 15; assay type: functional, organism-based; set-up: dose 0.3 mg/kg
[17] = Half life in rat at 1 mg/kg, iv; assay type: ADME, organism-based; set-up: dose 1 mg/kg, route intravenous; conditions: in vivo
Cytochrome P450 2C19 = Cytochrome P450 2C19 (Homo sapiens, UniProt P33261); assay: Inhibition of CYP2C19 (unknown origin); assay type: ADME
[18] = Metabolic stability in dog liver microsomes assessed as compound remaining after 60 mins; assay type: ADME, Canis lupus familiaris; conditions: read-out: Stability
[19] = Half life in human hepatocytes; assay type: ADME, cell-based, Hepatocyte
Cytochrome P450 1A2 = Cytochrome P450 1A2 (Homo sapiens, UniProt P05177); assay: Inhibition of CYP1A2 (unknown origin); assay type: ADME
[20] = Cmax in dog at 1 mg/kg, iv; assay type: ADME, organism-based, Canis lupus familiaris; set-up: dose 1 mg/kg, route intravenous; conditions: in vivo
[21] = Metabolic stability in human liver microsomes assessed as compound remaining after 60 mins; assay type: ADME; conditions: read-out: Stability
[22] = Metabolic stability in rat liver microsomes assessed as compound remaining after 60 mins; assay type: ADME; conditions: read-out: Stability
[23] = AUC (0 to infinity) in dog at 5 mg/kg, po; assay type: ADME, organism-based, Canis lupus familiaris; set-up: dose 5 mg/kg, route oral, time infinity; conditions: plasma
Cytochrome P450 2D6 = Cytochrome P450 2D6 (Homo sapiens, UniProt P10635); assay: Inhibition of CYP2D6 (unknown origin); assay type: ADME
[24] = Thermodynamic solubility in aqueous buffer solution at pH 7.4; assay type: physicochemical
[25] = Plasma protein binding in dog; assay type: ADME, cell-free, Canis lupus familiaris; conditions: read-out: PPB (converted)
Rattus norvegicus [26] = assay: Antiinflammatory activity in rat collagen-induced arthritis model assessed as reduction in clinical score at 0.1 mg/kg, po measured up to day 15; assay type: functional, organism-based; set-up: dose 0.1 mg/kg
[27] = Clearance in dog at 1 mg/kg, iv; assay type: ADME, organism-based, Canis lupus familiaris; set-up: dose 1 mg/kg, route intravenous; conditions: in vivo
[28] = Tmax in rat at 5 mg/kg, po; assay type: ADME, organism-based; set-up: dose 5 mg/kg, route oral; conditions: in vivo
[29] = Half life in rat at 5 mg/kg, po; assay type: ADME, organism-based; set-up: dose 5 mg/kg, route oral; conditions: in vivo
[30] = Permeability across apical to basolateral side in human Caco2 cells; assay type: ADME, cell-based; conditions: caco-2
[31] = Kinetic solubility of the compound at pH 7.4; conditions: buffer
[32] = Plasma protein binding in human; assay type: ADME, cell-free; conditions: read-out: PPB (converted)

Chain of Cytochrome P450 1A2 (P05177 whole entry): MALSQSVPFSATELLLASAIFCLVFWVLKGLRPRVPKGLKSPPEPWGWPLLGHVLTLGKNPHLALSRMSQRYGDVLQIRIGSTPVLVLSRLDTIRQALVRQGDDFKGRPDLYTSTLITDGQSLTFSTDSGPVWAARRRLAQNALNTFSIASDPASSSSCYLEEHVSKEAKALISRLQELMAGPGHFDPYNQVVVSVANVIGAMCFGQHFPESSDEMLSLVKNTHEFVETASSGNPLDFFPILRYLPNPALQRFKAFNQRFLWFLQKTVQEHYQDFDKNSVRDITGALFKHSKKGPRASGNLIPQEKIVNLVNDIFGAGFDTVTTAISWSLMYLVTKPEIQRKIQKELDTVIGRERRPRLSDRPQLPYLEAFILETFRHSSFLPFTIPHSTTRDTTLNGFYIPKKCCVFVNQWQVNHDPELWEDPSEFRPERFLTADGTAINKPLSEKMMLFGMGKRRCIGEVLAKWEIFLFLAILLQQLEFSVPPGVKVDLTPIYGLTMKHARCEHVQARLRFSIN
Chain of Cytochrome P450 2C9 (P11712 whole entry): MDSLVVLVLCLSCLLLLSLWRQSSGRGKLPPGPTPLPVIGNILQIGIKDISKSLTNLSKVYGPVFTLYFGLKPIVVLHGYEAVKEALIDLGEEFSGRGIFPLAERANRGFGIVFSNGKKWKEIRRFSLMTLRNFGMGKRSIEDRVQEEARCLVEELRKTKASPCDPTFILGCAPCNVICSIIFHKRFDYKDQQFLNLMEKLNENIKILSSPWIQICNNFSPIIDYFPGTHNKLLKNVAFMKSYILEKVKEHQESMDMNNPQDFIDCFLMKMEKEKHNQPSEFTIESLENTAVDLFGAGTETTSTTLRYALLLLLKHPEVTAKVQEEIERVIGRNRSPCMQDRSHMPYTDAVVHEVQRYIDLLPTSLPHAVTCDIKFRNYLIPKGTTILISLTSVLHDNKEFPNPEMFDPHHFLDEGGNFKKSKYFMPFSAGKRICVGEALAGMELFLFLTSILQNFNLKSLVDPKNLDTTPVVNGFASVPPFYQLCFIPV
Chain of Cytochrome P450 2D6 (P10635 whole entry): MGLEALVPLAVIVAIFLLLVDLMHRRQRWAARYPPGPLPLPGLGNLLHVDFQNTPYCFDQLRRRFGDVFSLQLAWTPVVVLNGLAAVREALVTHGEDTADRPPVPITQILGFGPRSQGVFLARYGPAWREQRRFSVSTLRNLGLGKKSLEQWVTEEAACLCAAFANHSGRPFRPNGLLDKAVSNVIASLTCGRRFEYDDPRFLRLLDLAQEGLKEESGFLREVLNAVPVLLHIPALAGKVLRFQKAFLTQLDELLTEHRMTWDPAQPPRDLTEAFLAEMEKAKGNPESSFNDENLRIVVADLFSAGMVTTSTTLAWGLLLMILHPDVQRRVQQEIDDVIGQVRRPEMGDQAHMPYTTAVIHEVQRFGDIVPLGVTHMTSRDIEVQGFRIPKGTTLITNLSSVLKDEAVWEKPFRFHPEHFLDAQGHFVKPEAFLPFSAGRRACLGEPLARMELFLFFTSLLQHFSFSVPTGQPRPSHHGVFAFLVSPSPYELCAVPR
Chain of Jak1 protein (Q5FVF5 whole entry): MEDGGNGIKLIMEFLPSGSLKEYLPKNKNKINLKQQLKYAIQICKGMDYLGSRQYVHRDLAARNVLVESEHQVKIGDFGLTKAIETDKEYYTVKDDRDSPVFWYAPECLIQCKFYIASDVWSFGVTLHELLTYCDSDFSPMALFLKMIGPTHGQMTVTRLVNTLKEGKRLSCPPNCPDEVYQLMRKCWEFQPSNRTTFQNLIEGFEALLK
Chain of Cytochrome P450 2C19 (P33261 whole entry): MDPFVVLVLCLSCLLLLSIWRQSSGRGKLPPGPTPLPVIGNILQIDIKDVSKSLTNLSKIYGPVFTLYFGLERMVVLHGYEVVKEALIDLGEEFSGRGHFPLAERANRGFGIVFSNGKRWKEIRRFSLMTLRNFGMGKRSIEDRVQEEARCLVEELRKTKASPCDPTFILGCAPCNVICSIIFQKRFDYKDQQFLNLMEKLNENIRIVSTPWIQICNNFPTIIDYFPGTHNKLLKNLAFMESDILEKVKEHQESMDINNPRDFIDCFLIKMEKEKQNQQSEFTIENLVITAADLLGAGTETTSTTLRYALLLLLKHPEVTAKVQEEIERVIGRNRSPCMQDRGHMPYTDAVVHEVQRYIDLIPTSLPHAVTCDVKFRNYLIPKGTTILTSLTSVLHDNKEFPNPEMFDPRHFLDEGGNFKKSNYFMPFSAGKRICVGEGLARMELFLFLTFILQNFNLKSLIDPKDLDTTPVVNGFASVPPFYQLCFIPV

## O=C(Nc1nc2cccc(-c3ccc(CN4CCS(=O)(=O)CC4)cc3)n2n1)C1CC1 [FILGOTINIB]
[1]
  half-life: 3.33 h
[2]
  Vd: 1.7 L/kg
[3]
  AUC(0-inf): 1680 ng·h/mL
[4]
  Cmax: 1810 ng/mL
[5]
  fraction unbound: 0.525
[6]
  half-life: 7.5 h
[7]
  AUC(0-inf): 4100 ng·h/mL
Rattus norvegicus [8]
  inhibition: Dose-dependent effect
[9]
  Tmax: 1.5 h
[10]
  Cmax: 310 ng/mL
[11]
  AUC(0-inf): 739 ng·h/mL
Jak1 protein
  IC50: 0.029 µM
[12]
  bioavailability: 67%
Cytochrome P450 2C9
  IC50: > 70 µM
[13]
  half-life: 5.2 h
[14]
  half-life: 3.33 h
[15]
  Therm solubility: 243 µg/mL
Rattus norvegicus [16]
  inhibition: Active
[17]
  half-life: 1.6 h
Cytochrome P450 2C19
  IC50: > 70 µM
[18]
  remaining at 1 h: 45%
[19]
  half-life: 3.33 h
Cytochrome P450 1A2
  IC50: > 70 µM
[20]
  Cmax: 1140 ng/mL
[21]
  remaining at 1 h: 87%
[22]
  remaining at 1 h: 65%
[23]
  AUC(0-inf): 13900 ng·h/mL
Cytochrome P450 2D6
  IC50: > 70 µM
[24]
  Therm solubility: 40 µg/mL
[25]
  fraction unbound: 0.711
Rattus norvegicus [26]
  inhibition: Active
[27]
  clearance: 4.17 mL/min/kg
[28]
  Tmax: 2.2 h
[29]
  half-life: 3.9 h
[30]
  permeability: 3.5 ×10⁻⁶ cm/s
[31]
  solubility kinetic: > 85 µg/mL
[32]
  fraction unbound: 0.682
